Key:
[1] = molecular target: FGFR2 (Homo sapiens, UniProt P21802); assay: in vitro kinase assay; radiometric kinase panel gave […] inhibition at […]; format: biochemical
[2] = molecular target: T1, FGFR1 (Homo sapiens, UniProt P11362); assay: FRET-based in vitro kinase assay (Z'-LYTE); radiometric kinase panel gave […] inhibition at […]; format: biochemical
T1 construct: kinase domain
T1 sequence (P11362 478-767 limits assumed): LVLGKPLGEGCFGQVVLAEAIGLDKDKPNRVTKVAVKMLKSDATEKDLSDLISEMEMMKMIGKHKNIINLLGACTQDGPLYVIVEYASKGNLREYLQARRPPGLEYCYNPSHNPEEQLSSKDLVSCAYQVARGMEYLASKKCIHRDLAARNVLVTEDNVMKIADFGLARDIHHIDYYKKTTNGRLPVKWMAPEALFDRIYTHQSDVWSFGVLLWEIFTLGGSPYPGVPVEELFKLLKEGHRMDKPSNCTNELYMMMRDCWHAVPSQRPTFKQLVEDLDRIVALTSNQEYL

Chain of FGFR2 (P21802 22-821): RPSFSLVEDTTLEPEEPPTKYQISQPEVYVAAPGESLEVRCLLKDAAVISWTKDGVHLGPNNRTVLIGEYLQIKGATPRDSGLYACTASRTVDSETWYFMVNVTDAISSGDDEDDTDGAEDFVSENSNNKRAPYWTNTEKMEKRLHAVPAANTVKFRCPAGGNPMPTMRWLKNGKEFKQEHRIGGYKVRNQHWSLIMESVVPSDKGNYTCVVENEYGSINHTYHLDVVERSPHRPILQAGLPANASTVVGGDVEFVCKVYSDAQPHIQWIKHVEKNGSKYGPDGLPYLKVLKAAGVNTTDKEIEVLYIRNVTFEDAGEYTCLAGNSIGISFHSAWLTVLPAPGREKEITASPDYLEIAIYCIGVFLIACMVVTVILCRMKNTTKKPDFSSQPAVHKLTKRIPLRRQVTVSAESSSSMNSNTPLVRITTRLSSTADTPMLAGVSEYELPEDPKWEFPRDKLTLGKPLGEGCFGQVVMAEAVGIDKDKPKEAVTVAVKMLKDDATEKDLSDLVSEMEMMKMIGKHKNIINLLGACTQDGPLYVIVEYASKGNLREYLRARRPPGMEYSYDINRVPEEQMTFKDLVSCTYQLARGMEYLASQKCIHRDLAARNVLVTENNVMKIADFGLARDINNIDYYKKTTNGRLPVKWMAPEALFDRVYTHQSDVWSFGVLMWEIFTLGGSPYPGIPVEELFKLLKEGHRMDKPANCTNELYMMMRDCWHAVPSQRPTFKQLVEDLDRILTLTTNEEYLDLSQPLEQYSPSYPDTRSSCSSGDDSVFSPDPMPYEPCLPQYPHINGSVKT

IC50 [1]: ~12.5 µM | IC50 [2]: ~3.78 µM
SMILES: COc1cc(/C=C/C(=O)O)ccc1O [FA, 4-hydroxy-3-methoxycinnamic acid]

— PMC4632735, “Ferulic Acid Exerts Anti-Angiogenic and Anti-Tumor Activity by Targeting Fibroblast Growth Factor Receptor 1-Mediated Angiogenesis” (International Journal of Molecular Sciences, 2015)
